Source: publication PMC7711741 (Journal of medicinal chemistry, 2015)

What was measured:
[1] = target: murine uPA (Mus musculus, UniProt P06869); assay: Ki determination, chromogenic substrate S-2444; assay type: biochemical; settings: for fold increase in Ki for muPA: versus peptide 2
[2] = test system: huPA-H99Y; assay: Ki determination, chromogenic substrate S-2444; assay type: biochemical, human; settings: versus peptide 2
[3] = target: human PK (Homo sapiens, UniProt P03952); assay: Ki determination, chromogenic substrate S-2302; assay type: biochemical; settings: versus mupain-1–16
Sequence of human PK (P03952 20-638): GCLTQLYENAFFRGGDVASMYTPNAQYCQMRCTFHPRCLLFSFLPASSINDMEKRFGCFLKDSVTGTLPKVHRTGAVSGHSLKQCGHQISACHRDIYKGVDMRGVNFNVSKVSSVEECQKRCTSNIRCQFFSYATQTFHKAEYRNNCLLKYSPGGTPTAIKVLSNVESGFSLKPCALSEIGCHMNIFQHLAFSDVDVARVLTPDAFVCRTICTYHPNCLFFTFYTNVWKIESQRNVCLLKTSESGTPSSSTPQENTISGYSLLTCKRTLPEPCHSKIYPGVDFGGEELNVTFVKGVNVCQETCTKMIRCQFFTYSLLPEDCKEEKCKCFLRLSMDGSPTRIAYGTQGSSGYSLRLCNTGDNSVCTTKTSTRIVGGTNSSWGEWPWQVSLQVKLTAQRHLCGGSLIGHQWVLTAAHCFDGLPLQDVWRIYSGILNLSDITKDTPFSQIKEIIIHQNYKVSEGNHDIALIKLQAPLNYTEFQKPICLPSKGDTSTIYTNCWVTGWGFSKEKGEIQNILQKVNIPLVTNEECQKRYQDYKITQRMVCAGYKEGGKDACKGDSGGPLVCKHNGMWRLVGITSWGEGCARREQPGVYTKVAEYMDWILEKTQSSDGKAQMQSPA

Sequence of murine uPA (P06869 21-433): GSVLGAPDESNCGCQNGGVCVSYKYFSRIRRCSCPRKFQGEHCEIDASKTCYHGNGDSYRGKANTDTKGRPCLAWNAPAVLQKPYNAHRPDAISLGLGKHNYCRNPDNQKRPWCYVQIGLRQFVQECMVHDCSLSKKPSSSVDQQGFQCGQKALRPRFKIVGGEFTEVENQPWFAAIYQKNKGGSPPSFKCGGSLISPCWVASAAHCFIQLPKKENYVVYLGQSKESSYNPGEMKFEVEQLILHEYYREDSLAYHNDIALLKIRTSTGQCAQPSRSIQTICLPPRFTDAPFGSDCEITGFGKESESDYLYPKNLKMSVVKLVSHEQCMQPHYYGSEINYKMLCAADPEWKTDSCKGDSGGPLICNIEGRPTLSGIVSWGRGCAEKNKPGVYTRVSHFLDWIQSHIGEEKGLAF

Substance: CPAKS[L-3-(N-amidino-4-piperidyl)alanine]AL[KAc]C [peptide 4]
- fold increase in Ki for muPA [1]: 100 fold
- fold increase in Ki for huPA-H99Y [2]: 100 fold

Substance: CPARS[L-3-(N-amidino-4-piperidyl)alanine]AL[KAc]C [peptide 3]
- fold increase in Ki for muPA [1]: 100 fold
- fold increase in Ki for huPA-H99Y [2]: 100 fold

Substance: CPAYS[L-3-(N-amidino-4-piperidyl)alanine]-ALDC [peptide 1]
- fold lower Ki for inhibition of hPK [3]: 10 fold

Substance: CPAYS[L-3-(N-amidino-4-piperidyl)alanine]AL[KAc]C [peptide 2]
- fold weakened affinity to muPA ([1]; versus peptide 1): about 10 fold
